Assay results as given in ChEMBL document CHEMBL1143087, “Indirect oxidation of the antitumor agent procarbazine by tyrosinase--possible application in designing anti-melanoma prodrugs” (Bioorg Med Chem Lett, 2008).
The source made the active and inactive calls. No cut-off for these calls is given here.

Target: T1, Tyrosinase (Agaricus bisporus) (UniProt O42713)
T1 sequence (whole entry): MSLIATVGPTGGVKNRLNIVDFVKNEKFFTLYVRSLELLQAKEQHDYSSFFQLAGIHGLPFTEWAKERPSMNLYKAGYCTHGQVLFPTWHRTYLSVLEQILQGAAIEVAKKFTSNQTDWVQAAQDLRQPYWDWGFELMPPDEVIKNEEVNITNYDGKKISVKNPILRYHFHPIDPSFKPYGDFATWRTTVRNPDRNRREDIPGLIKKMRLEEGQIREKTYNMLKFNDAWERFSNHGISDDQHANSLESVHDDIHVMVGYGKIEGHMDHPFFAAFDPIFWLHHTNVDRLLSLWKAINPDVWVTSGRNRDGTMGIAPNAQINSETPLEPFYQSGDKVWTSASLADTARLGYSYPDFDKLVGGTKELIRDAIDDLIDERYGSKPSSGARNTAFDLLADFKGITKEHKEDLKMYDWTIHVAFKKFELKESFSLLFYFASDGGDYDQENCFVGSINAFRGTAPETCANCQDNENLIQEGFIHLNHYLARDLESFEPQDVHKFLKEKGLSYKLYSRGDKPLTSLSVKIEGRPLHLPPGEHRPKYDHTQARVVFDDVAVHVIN
Test: Increase in mushroom tyrosinase catalysed oxidation of 4-tert-butyl catechol assessed as oxygen consumption after 30 mins

- Activity: Active
Structure (SMILES): CNNCc1ccc(C(=O)NC(C)C)cc1
